# “Also recorded” adds a separate entry of the source.
# Assays:
# [1] = tested on: breast cancer, HNSCC, prostate cancer, and ovarian cancer; experiment: Phase 2 imaging of tumors 3-6 hours post dosing with multiple NIR cameras; format: in vivo, human
# Protocol: The study also utilized data collected from different NIR cameras and from multiple sites. All patients received a single I.V. dose of Compound 1, followed by routine surgery approximately 3-6 hours after infusion of Compound 1. Pre-excision and post-excision intraoperative and backtable visualization a tumor from a breast cancer patient (101-001; UPenn; VisionSense NIR camera) dosed with Compound 1 (2 mg/kg) 6±3 hr prior to surgery and an HNSCC cancer patient (102-007; UTSW; NOVADAQ SPY Elite NIR camera) dosed with Compound 1 (3 mg/kg) 6±3 hr prior to surgery are shown in FIG. 22. In each case, white light imaging of the pre- or post-excised tumor/specimen is juxtaposed with an overlay of the fluorescence observed and the white light image, indicating the presence of the tumor. Intraoperative/in vivo imaging of prostate cancer from two patients (102-008 and 102-009; UTSW; Da Vinci Firefly NIR camera with updated software/hardware) dosed with Compound 1 (3 mg/kg) 6±3 hr prior to excision of the tumor and the imaging of wound bed after excision of the tumor are shown in FIG. 23. In each case, white light imaging of the pre-excised tumor/specimen and the surgical wound bed are juxtaposed with images of the fluorescence observed. […] A tumor from a patient (101-005) with ovarian cancer dosed with Compound 1 (3 mg/kg, 6±3 hr) was imaged in vivo pre-excision as shown in FIG. 24. A white light image juxtaposed with an overlay of the fluorescence observed and the white light image, indicating the presence of the tumor.
# [2] = Safety (adverse effects) in dog-patients; format: in vivo; details: 7 dogs; 0.5-2.0 mg/kg; injection through discharge
# Protocol: (§1) Materials and methods: After evaluation and recruitment for the study, dog-patients underwent (A) pre-operation analysis to identify possible types of lesion, and (B) Compound 1 tracer was administrated at 0.5 to 2.0 mg/kg, 18-78 hours prior to surgery. During the surgery (C) intra-operative imaging was performed using a Hamamatsu PDE or custom NIR camera before and after tumor removal (or after limb amputations). Resected tissues were (D) imaged with a LI-COR Pearl Imaging station and tumor-to-normal-tissue ratios were calculated accordingly. The resected tissues were then (E) preserved for histopathology validation. Safety was assessed separately in terms of adverse effects through physical examinations, laboratory tests and the recording of adverse events from infusion through discharge from hospital.
# (§2) Results: A summary of the data from spayed or neutered dog patients that were recruited for the study is shown below (Table 16). Results from a total of seven dogs of different breeds, aged 4-12 years, body weights ranging from 20.9-59.5 kg, and with a range of tumors ware presented, including instances where more than one tumor was present. Doses studied thus far ranged from 0.5-2.0 mg/kg. […] Both acute and chronic adverse effects were monitored from the time of injection through discharge of the animals from the hospital and follow-up appointments (to remove sutures) and noted.
# solid neoplasia = experiment: Tumor imaging in dogs with solid neoplasia; format: in vivo, dog
# Protocol: as §1, §2
# [3] = tested on: tumor positive surgical margins; experiment: Fluorescence detection of tumor positive surgical margins versus final histopathology; format: in vivo, human; details: 1.2 mg/kg; EC; per patient
# [4] = Phase 1 safety assessment; format: in vivo, human
# Protocol: Phase 1a was a dose-finding study performed in 5 cohorts of 3 patients each. The dose levels evaluated were […], and 1.2 mg/kg, in this sequence. Inter-cohort dose escalation took place after the last patient in the previous cohort completed the Day 10 safety assessment. Safety, PK, and imaging feasibility were evaluated in both the Phase 1a and 1b portions of the study. Patient safety is assessed during the study and for up to 10 days post-dose.
substance,measurement,setting,value
PEO90-140-b-P(DBA60-150-r-ICG0-3-r-AMA0-3) [Compound 1],Intraoperative fluorescence in prostate cancer,"[1]; 3 mg/kg, 6±3 hr, Da Vinci Firefly camera",fluoresced intraoperatively
same,Fluorescence in the surgical bed after prostate tumor excision,"[1]; 3 mg/kg, 6±3 hr, negative margins confirmed through pathology",No fluorescence was detected
same,Fluorescence in BC and HNSCC tumors,"[1]; 3-5 hour dose schedule timing, SPY Elite camera",verified in all visible BC and HNSCC tumors
same,Ability to image tumors 3-6 hours after I.V. injection,"[1]; Phase 2, breast cancer, HNSCC, prostate cancer, ovarian cancer, 2-3 mg/kg",demonstrated
same,Adverse effects,[2],no adverse effects
same,Fluorescent signals in diseased tissues,"solid neoplasia; 7 dogs, 0.5-2.0 mg/kg, 24 or 72 hr before surgery",fluorescent signals were observed where expected for diseased tissues
same,Detection of occult disease,"solid neoplasia; one dog-patient, metastatic popliteal lymph node",occult disease was identified; also recorded: identification of occult disease
same,Surgical Margin by Fluorescence,[3],Negative
same,Safety profile,"[4]; Phase 1a, 0.1 to 1.2 mg/kg",comparable at all the dose levels studied and did not raise any specific safety concerns
same,Tolerability,"[4]; Phase 1b, 1.2 mg/kg",well tolerated

# Source: patent US20230025280A1, “PH RESPONSIVE COMPOSITIONS, FORMULATIONS, AND METHODS OF IMAGING A TUMOR” (ONCONANO MEDICINE, INC, priority 2019, published 2023)
